Data: US11648310B2, “Combination of anti-FGFR4-antibody and bile acid sequestrant” (Daiichi Sankyo Europe GmbH, priority 2015, dated 2023)

Tests used:
[1] = tested on: cynomolgus monkeys; conditions: cynomolgus monkey, in vivo
Excerpt: In order to find ort whether any toxic side effects of FGFR4 inhibition are due to elevated bile acid levels, the effect of co-administering agents which interfere with bile acid levels was examined. […] For reducing bile acid levels, the bile acid sequestrant colestyramine (Quantalan™) was used. Ursodeoxycholic acid (Ursofalk™) was used as a second compound for increasing the transport of bile acids out of the liver. Ursodeoxycholic acid is a hydrophilic bile acid that increases bile acid transporter expression and plasma membrane translocation in the liver, (palliative compounds 1 and 2). The study design included four cynomolgus monkeys (two male, two female) per group. The animals were assigned to the following groups [table] […] Duration and frequency: three administrations at 7-day interval (i.e. day 0, day 7 and day 14). The first day of dosing was designated as day 0. After the last administration, the animals were kept for a treatment-free period of at east 28 days. Method: intravenous injection (slow bolus) using a pump system and a microflex infusion set introduced into a vein after local disinfection with an aqueous solution of ethyl alcohol. After injection, the vein was flushed with sterile physiological saline. Volume administered: 9.52 mL/kg/day. Individual dose volumes were calculated using the latest body weight. Palliative Compounds and Vehicle Route: oral. Frequency: twice daily at 8 hours±1 hour apart. Duration: each day from day 0 to the last day of treatment-free period, i.e. at least 41 days of administrations. Method: naso-gastric intubation (animals are trained to this administration rotate five days before the start of treatment). […] Individual dose volumes were calculated using the latest body weight. […] FGF19 serum levels were determined using quantiquine human FGF19 ELISA from RND according to the manufacturer's instructions. RNA expression of cyno liver and ileum samples for Cyp7A1 (liver) and FGF19 (Ileum) were determined using the High-Capacity RNA-to-cDNA Kit (Applied Biosystems/Life Technologies) followed by subsequent quantitative real-time PCR.

[2] = tested on: cynomolgus monkeys; conditions: cynomolgus monkey, in vivo; remark: listed apart in the source
Excerpt: In order to find ort whether any toxic side effects of FGFR4 inhibition are due to elevated bile acid levels, the effect of co-administering agents which interfere with bile acid levels was examined. […] For reducing bile acid levels, the bile acid sequestrant colestyramine (Quantalan™) was used. Ursodeoxycholic acid (Ursofalk™) was used as a second compound for increasing the transport of bile acids out of the liver. Ursodeoxycholic acid is a hydrophilic bile acid that increases bile acid transporter expression and plasma membrane translocation in the liver, (palliative compounds 1 and 2).
The study design included four cynomolgus monkeys (two male, two female) per group. The animals were assigned to the following groups
Duration and frequency: three administrations at 7-day interval (i.e. day 0, day 7 and day 14). The first day of dosing was designated as day 0. […]
The test animals were examined for clinical signs, liver enzymes, bile acid levels and FGF19. FGF19 serum levels were determined using quantiquine human FGF19 ELISA from RND according to the manufacturer's instructions. RNA expression of cyno liver and ileum samples for Cyp7A1 (liver) and FGF19 (Ileum) were determined using the High-Capacity RNA-to-cDNA Kit (Applied Biosystems/Life Technologies) followed by subsequent quantitative real-time PCR. […]

colestyramine [Quantalan™, reference compound]
Alanine aminotransferase activity [1]: within the normal range
Bile acid concentration [1]: within the normal range
Reversibility of the aspartate aminotransferase effect [1]: reversible
Histopathological changes [2]: no histopathological changes
